# Reference: patent publication US20240207261A1, “METHODS FOR TREATING SMALL CELL LUNG CANCER AND OTHER NEUR[…]” (BOARD OF REGENTS, THE UNIVERSITY OF TEXAS SYSTEM, priority 2021, published 2024)
# Where “and” joins values, the source holds several entries; their conditions need not be identical. Equal entries are not always repeated. Where two headings read alike, the source gives them in different places.
# Tests used:
# DMS79 and H209 cells = assay: Proliferation assay after siRNA knockdown of SLFN11; assay type: cell-based, human; conditions: DMS79 and H209, versus parental and scrambled siRNA controls
# Procedure: For SLFN11 gene silencing, pooled small interfering RNAs (siRNAs) targeting SLFN11 (L-016764-01-0005) or its corresponding scramble control (D-001810-10-05; GE Dharmacon) were transfected into DMS79 and H209 cells for 72 hours using Lipofectamine 2000 (Invitrogen) according to the manufacturer's protocol. The cells were then plated for 96h proliferation assays. Knock down efficiency was validated by Western blotting.
# human SCLC cell lines = assay: Cell proliferation assay (Cell Titer Glo), panel of 21 human SCLC cell lines; assay type: cell-based; conditions: for IC50: 21 human SCLC cell lines
# Procedure: Human SCLC cell lines (21 cell lines) were purchased from ATCC. Cell lines were tested and authenticated by short tandem repeat profiling (DNA fingerprinting) and not cultured for greater than 6-months and were routinely tested for Mycoplasma contamination. Cell lines were cultured in either RPMI or HITES medium with 10% fetal bovine serum and 1% pen-strep, at 37° C. in a humidified chamber with 5% C02.
# Cells were seeded in 96-well plates at 2,000 cells per well in triplicate for each cell line. After 24 hours, the cells in each well were treated with a lurbinectedin or with vehicle control. Four days later, proliferation was assayed by Cell Titer Glo (Promega, Fitchburg, WI). For single drug treatments, median inhibitory concentration (IC50) values were estimated by the Drexplorer software using date from duplicate experiments (14). For drug combinations, the area under the curve (AUC) of the observed (or experimental) effect of the combination was compared to the predicted additive effect. Data was subsequently presented as a ratio of the experimental effect relative to the predicted additive effect based on the Bliss Independence model, as previously reported (15). Using 10% above or below the predicted additive effect as a cut-off, the inventors then assigned the following groups: Observed/predicted<−0.1=greater than additive; […]; Observed/predicted <0.1 and >−0.1=additive.
# Differences in IC50 values between subgroups were tested using ANOVA. Differences between SLFN11 high and low groups, defined using the bi-modality index (16), were tested using an un-paired t-test. Spearman rank correlation was used to assess the association between IC50 values and RPPA protein markers, The Benjamini & Hochberg (1995) method (17) was used to control false discovery rate (FDR). RPPA generates a quantitative measurement of expression of over 200 total and phosphorylated proteins, these values can be correlated to other variables such as IC50 values, and be compared between biomarker defined groups using standard statistical techniques. All analyses were performed using the R software.
# metastatic SCLC = conditions: 37 of 102 patients; 95% CI 26.2-45.2; cited from earlier work
# [1] = tested on: pChK1, pRPA32, TH2AX in SCLC cell lines; assay: Western blot of DNA damage markers (Example 1); assay type: cell-based; conditions: 1 nM for 24 or 48 hours, sensitive cell lines
# Procedure: (§1) A 12 SCLC cell line panel representing SCLC-A, N, P and I subtypes, developed at MD Anderson Cancer Center, was screened against lurbinectedin in 96 hr proliferation assays (FIG. 2). Western Blotting: Three SCLC cell lines were treated with 1 nM of lurbinectedin for 24 and 48h and then subjected for protein isolation and Western blotting for pChK1, pRPA32, TH2AX.
# SCLC cell lines = assay: 96 hr proliferation assay, SCLC cell line panel (Example 1); assay type: cell-based, human and mouse; conditions: for IC50: 12 human-derived and 3 mouse model-derived SCLC cell lines
# Procedure: In this preclinical study, the inventors investigated the therapeutic efficacy of lurbinectedin in large number of profiled SCLC cell lines representing the four SCLC subtypes (A, N, P and I) to identify candidate markers of drug sensitivity and resistance.
# as §1
# [2] = tested on: cGAS, phospho STING, PD-L1 in SCLC cells; assay: Western blot of cGAS-STING pathway and PD-L1; assay type: cell-based, human; conditions: 24 and 48h
# Procedure: (§2) Protein lysate were isolated from SCLC cells treated with 0.9 nM lurbinectedin or DMSO for 24 and 48h. Nitrocellulose membranes were incubated with primary antibodies (1:1000) for Human SLFN11 (Santa Cruz Biotechnology), phospho-(S345) CHK1 Cell Signaling Technologies (CST), phospho-(S4/S8) RPA32 (Bethyl laboratories), phospho-(S139) TH2AX (CST), cleaved caspase-3 (CST), phospho-(S366) STING (SAB Biotech), cGAS (CST), PD-L1(CST), GAPDH (Santa Cruz Biotechnology) and Vinculin (Sigma-Aldrich) overnight. Secondary anti-goat, anti-mouse (Santa Cruz Biotechnology) and anti-rabbit HRP linked antibodies (CST) were used and detected using the Chemidoc imaging system, image captured with Image Studio Version 3.1 software (BioRad).
# H865 xenografts = assay: Flank xenograft efficacy study, SLFN11 low; assay type: in vivo, mouse; conditions: H865, lower SLFN11; 0.1 mg/kg i.v. once per week
# Procedure: (§3) For the […] mouse model, 6-week-old female athymic nude mice (Envigo) were used. Animals were maintained in accordance with the Institutional Animal Care and Use Committee (IACUC) of The University of Texas MD Anderson Cancer Center and the NIH Guidelines for the Care and Use of Laboratory Animals. Experiments were performed under protocol: 00001191-RN03.
# (§4) High SLFN11 protein expressing SCLC cell line DMS79 and low SLFN11 protein expressing cell line H865 were used for generation of xenografts. For subcutaneous injections, 1×10^6 SCLC cells were injected into one flank of each mouse with PBS: Matrigel (1:1, BD Biosciences). At an average tumor volume of 100 mm^3, mice were randomly allocated to three groups (n=5). Mice received either Vehicle (0.9% saline), lurbinectedin (0.1 mg/kg i.v. once per week), or cisplatin (6 mg/kg i.p. once per week). Tumor volumes were measured every other day using digital calipers.
# (§5) Differences in IC50 values between subgroups were tested using ANOVA. Differences between SLFN11 high and low groups, defined using the bi-modality index were tested using an un-paired t-test. Spearman rank correlation was used to assess the association between IC50 values and RPPA protein markers, The Benjamini & Hochberg (1995) method was used to control false discovery rate (FDR). […]
# [3] = tested on: phospho CHK1(S345), phospho RPA32(S4/S8), phospho TH2AX in SCLC cells; assay: Western blot of replication stress and DNA damage markers (Example 2); assay type: cell-based, human; conditions: 0.9 nM, 24 and 48h, versus DMSO, all four subtypes
# Procedure: as §2
# Based on its mechanism of action, the inventors predicted that lurbinectedin would lead to increased replication stress and DNA damage in SCLC models. To test this, SCLC cells from all four subtypes were treated with lurbinectedin (0.9 nM/L) for 24 and 48h and markers of DNA damage and replication stress were assayed by Western blot.
# DMS79 xenografts = assay: Flank xenograft efficacy study, SLFN11 high; assay type: in vivo, mouse; conditions: 0.1 mg/kg i.v. once per week
# Procedure: as §3, §4, §5
# [4] = clinical testing; cited from earlier work
# SLFN11 = assay: Western blot of SLFN11 expression after treatment; assay type: cell-based, human
# Procedure: as §2
compound,measurement,setting,value
"COc1ccc2[nH]c3c(c2c1)CCN[C@]31CS[C@@H]2c3c(OC(C)=O)c(C)c4c(c3[C@H](COC1=O)N1[C@@H]2[C@H]2c3c(cc(C)c(OC)c3O)C[C@@H]([C@@H]1O)N2C)OCO4 [lurbinectedin, Lurbinectedin]",sensitivity after SLFN11 knockdown,DMS79 and H209 cells,reduced sensitivity
same,IC50,human SCLC cell lines; read-out: IC50 range,0.06 to 1.83 nM
same,IC50,human SCLC cell lines; read-out: median IC50,0.46 nM
same,difference in in vitro activity between subtypes,"human SCLC cell lines; SCLC-A, SCLC-N, SCLC-P, SCLC-I",no significant difference
same,fold change (FC) of IC50 between SLFN11 high and low cell lines,human SCLC cell lines; bimodal separation of SLFN11 by RPPA,3.26 and 3.2
same,overall response by investigator assessment,metastatic SCLC,35.2%
same,"markers of DNA damage (TH2AX, ChK1, RPA32)",[1],increased markers of DNA damage
same,IC50,SCLC cell lines; read-out: IC50 range,0.08 to 1.84 nM
same,IC50,SCLC cell lines; read-out: median IC50,0.52 nM
same,IC50 of SLFN11-high versus SLFN11-low SCLC cells,SCLC cell lines; p=0.0035 by t-test,lower IC50 than SLFN11-low cells
same,subtype specific difference in sensitivity,"SCLC cell lines; subtypes A, N, P and I",no subtype specific difference
same,phospho STING and PD-L1,[2],only observed in cell lines from the SCLC-P and SCLC-I subtypes
same,protein levels of cGAS,"[2]; versus DMSO, all cell lines tested",induced an increase
same,sensitivity of xenografts,H865 xenografts,significantly less sensitive
same,markers of replication stress phospho CHK1(S345) and phospho RPA32(S4/S8),[3],increases in markers of replication stress
same,tumor growth versus vehicle,DMS79 xenografts,significantly reduced tumor growth
same,peak plasma concentration,[4],148.2-153.8 ng/mL and 188.8-196.0 nM
same,change in SLFN11 levels,SLFN11; DMS-79,minimal decrease
same,change in SLFN11 levels,SLFN11; H1048,undetectable level
